Calls of active or inactive are those of the source. The rule behind the calls is not given here.
Assays:
[1] = molecular target: DNA topoisomerase 2-alpha (Homo sapiens, UniProt P11388); test: Inhibition of human DNA topoisomerase 2-mediated relaxation of supercoiled DNA by gel electrophoresis
[2] = tested on: PANC-1; test: Cytotoxicity against human PANC1 cells after 48 hrs by WST8 assay; type: functional; details: PANC-1, 48 h
[3] = tested on: HL-60; test: Cytotoxicity against human HL60 cells after 48 hrs by WST8 assay; type: functional; details: HL-60, 48 h
[4] = molecular target: T1, DNA topoisomerase 1 (Homo sapiens) (UniProt P11387); test: Inhibition of human DNA topoisomerase 1-mediated relaxation of supercoiled DNA at 63 to 125 uM
T1 sequence (whole entry): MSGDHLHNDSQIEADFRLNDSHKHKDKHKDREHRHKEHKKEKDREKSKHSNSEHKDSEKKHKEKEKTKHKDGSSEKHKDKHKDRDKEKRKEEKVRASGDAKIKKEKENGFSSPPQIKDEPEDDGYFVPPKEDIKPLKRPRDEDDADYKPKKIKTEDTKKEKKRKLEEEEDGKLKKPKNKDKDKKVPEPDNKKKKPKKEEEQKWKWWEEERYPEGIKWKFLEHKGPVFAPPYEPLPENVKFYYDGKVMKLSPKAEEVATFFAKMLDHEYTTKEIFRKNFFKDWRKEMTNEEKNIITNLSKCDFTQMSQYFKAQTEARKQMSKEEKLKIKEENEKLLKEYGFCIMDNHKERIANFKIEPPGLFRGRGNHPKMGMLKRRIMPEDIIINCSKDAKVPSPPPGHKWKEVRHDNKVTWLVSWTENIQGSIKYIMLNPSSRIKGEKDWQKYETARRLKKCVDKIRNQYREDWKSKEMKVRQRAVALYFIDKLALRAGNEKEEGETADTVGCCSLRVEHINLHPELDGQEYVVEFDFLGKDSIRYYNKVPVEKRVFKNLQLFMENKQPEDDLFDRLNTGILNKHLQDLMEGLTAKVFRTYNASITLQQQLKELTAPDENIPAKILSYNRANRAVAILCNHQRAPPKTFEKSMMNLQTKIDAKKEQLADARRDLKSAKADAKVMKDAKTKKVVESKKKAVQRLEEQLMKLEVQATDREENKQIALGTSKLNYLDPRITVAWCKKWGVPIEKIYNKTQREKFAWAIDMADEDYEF

[5] = molecular target: T1, DNA topoisomerase 1 (Homo sapiens); test: Inhibition of human DNA topoisomerase 1 assessed as stabilize DNA-enzyme covalent complex
[6] = molecular target: T2, DNA topoisomerase 1 (Homo sapiens, UniProt P11387); test: Inhibition of human DNA topoisomerase 1 at free enzyme state
T2 sequence (P11387 whole entry): T1 sequence (whole entry)

[7] = Cytotoxicity against human MRC5 cells after 48 hrs by WST8 assay; type: cell-based
[8] = molecular target: T2, DNA topoisomerase 1; test: Inhibition of human DNA topoisomerase 1-mediated relaxation of supercoiled DNA by gel electrophoresis
[9] = tested on: A549; test: Cytotoxicity against human A549 cells after 48 hrs by WST8 assay; type: functional; details: A549, 48 h
[10] = molecular target: T1, DNA topoisomerase 1 (Homo sapiens); test: Inhibition of human DNA topoisomerase 1 assessed as prevention of DNA-enzyme complex formation
[11] = tested on: PC-3; test: Cytotoxicity against human PC3 cells after 48 hrs by WST8 assay; type: functional; details: PC-3, 48 h
[12] = tested on: PANC-1; test: Cytotoxicity against human PANC1 cells at 25 uM after 48 hrs by WST8 assay; type: functional, cell-based
[13] = tested on: A549; test: Cytotoxicity against human A549 cells at 25 uM after 48 hrs by WST8 assay; type: functional, cell-based
[14] = tested on: MRC5; test: Cytotoxicity against human MRC5 cells at 25 uM after 48 hrs by WST8 assay; type: cell-based; details: mrc5, 48 h
[15] = tested on: HL-60; test: Cytotoxicity against human HL60 cells at 25 uM after 48 hrs by WST8 assay; type: functional, cell-based
[16] = tested on: PC-3; test: Cytotoxicity against human PC3 cells at 25 uM after 48 hrs by WST8 assay; type: functional, cell-based
[17] = molecular target: T1, DNA topoisomerase 1 (Homo sapiens); test: Inhibition of human DNA topoisomerase 1 assessed as intercalate into DNA at 312 uM
[18] = molecular target: T1, DNA topoisomerase 1 (Homo sapiens); test: Inhibition of human DNA topoisomerase 1-mediated relaxation of supercoiled DNA at 312 uM

DNA topoisomerase 2-alpha, sequence (P11388 whole entry): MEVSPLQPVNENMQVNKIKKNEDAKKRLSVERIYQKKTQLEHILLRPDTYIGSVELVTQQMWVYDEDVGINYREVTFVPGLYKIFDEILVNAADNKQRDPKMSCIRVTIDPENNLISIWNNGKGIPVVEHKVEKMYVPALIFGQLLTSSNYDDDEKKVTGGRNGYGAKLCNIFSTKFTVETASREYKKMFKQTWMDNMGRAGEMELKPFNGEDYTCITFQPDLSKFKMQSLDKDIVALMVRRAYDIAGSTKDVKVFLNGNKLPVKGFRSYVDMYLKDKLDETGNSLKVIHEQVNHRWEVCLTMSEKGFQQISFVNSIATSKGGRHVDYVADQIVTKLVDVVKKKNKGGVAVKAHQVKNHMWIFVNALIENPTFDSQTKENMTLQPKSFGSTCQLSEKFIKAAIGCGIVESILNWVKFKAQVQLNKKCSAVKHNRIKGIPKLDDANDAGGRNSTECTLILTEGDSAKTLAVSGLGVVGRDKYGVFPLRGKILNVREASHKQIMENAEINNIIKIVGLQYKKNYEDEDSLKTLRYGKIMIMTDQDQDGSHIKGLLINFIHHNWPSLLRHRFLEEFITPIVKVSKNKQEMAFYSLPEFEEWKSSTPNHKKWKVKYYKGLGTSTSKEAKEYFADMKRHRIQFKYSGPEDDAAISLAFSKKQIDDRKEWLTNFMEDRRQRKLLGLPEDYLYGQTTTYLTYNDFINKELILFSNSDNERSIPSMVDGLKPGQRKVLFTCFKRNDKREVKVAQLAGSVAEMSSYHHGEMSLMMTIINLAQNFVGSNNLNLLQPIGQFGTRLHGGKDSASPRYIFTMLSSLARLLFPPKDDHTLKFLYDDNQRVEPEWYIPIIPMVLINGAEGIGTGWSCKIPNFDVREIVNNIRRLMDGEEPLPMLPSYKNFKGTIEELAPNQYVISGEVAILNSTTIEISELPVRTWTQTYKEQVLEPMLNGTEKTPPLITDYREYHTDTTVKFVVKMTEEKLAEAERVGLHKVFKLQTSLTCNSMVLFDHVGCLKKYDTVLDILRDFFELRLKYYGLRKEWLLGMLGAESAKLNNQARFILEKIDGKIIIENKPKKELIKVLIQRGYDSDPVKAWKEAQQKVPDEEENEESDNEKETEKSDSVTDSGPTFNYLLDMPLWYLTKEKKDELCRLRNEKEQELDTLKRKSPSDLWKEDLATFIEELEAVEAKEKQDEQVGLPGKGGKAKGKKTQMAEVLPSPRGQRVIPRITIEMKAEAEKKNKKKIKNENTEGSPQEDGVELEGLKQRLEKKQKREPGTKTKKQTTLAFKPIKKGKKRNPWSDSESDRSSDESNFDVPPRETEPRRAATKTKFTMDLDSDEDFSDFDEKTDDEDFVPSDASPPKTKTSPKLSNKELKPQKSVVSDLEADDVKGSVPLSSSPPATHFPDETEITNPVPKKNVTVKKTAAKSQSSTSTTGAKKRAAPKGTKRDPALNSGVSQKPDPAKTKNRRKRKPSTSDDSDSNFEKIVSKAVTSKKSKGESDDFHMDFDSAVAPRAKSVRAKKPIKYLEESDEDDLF

Row | SMILES | IC50 [1] | GI50 [2] | GI50 [3] | inhibition [4] | inhibition [5] | IC50 [6] | GI50 at 48 h [7] | IC50 [8] | GI50 [9] | inhibition [10] | GI50 [11] | growth inhibition (GI) [12] | growth inhibition (GI) [13] | growth inhibition (GI) [14] | growth inhibition (GI) [15] | growth inhibition (GI) [16] | Activity [17] | inhibition [18]
1 | C/C=C(/C)C(=O)O[C@H]1[C@H](OC(=O)/C(C)=C\C)[C@]2(CO)[C@H](O)C[C@]3(C)C(=CC[C@@H]4[C@@]5(C)CC[C@H](O[C@@H]6O[C@H](C(=O)O)[C@@H](O)[C@H](O[C@@H]7O[C@@H](CO)[C@H](O)[C@H]7O)[C@H]6O[C@@H]6O[C@H](CO)[C@@H](O)[C@H](O)[C@H]6O)[C@](C)(CO)[C@@H]5CC[C@]43C)[C@@H]2CC1(C)C | > 250 µM | 11.1 µM | 1.94 µM | Active | inactive | 23.8 µM | 5.5 µM | 53 µM | 6.36 µM | Active | 1.6 µM | – | – | – | – | – | – | –
2 | C/C=C(/C)C(=O)O[C@H]1[C@H](OC(=O)/C(C)=C\C)[C@]2(CO)[C@H](O)[C@H](O)[C@]3(C)C(=CC[C@@H]4[C@@]5(C)CC[C@H](O[C@@H]6O[C@H](C(=O)O)[C@@H](O)[C@H](O[C@@H]7O[C@@H](CO)[C@H](O)[C@H]7O)[C@H]6O[C@@H]6O[C@H](CO)[C@H](O)[C@H](O)[C@H]6O)C(C)(C)[C@@H]5CC[C@]43C)[C@@H]2CC1(C)C | > 250 µM | 21.5 µM | 16.9 µM | Active | inactive | 23.8 µM | 5.26 µM | 32.7 µM | 4.58 µM | Active | 14.3 µM | – | – | – | – | – | – | –
3 | C/C=C(/C)C(=O)O[C@H]1[C@H](O)[C@]2(CO)[C@H](O)C[C@]3(C)C(=CC[C@@H]4[C@@]5(C)CC[C@H](O[C@@H]6O[C@H](C(=O)O)[C@@H](O)[C@H](O[C@@H]7O[C@@H](CO)[C@H](O)[C@H]7O)[C@H]6O[C@@H]6O[C@H](CO)[C@@H](O)[C@H](O)[C@H]6O)[C@](C)(CO)[C@@H]5CC[C@]43C)[C@@H]2CC1(C)C [AESCULIOSIDE IIB] | – | – | – | – | – | – | – | – | – | – | – | inactive | inactive | Not Active | inactive | inactive | Active | inactive
4 | C/C=C(\C)C(=O)O[C@H]1[C@H](OC(=O)/C(C)=C/C)[C@]2(CO)[C@H](O)[C@H](O)[C@]3(C)C(=CC[C@@H]4[C@@]5(C)CC[C@H](O[C@@H]6O[C@H](C(=O)O)[C@@H](O)[C@H](O[C@@H]7O[C@@H](CO)[C@H](O)[C@H]7O)[C@H]6O[C@@H]6O[C@H](CO)[C@@H](O)[C@H](O)[C@H]6O)[C@](C)(CO)[C@@H]5CC[C@]43C)[C@@H]2CC1(C)C [AESCULIOSIDE IIID] | > 250 µM | 21.7 µM | 15.2 µM | Active | – | – | 9.01 µM | 48.6 µM | 23.7 µM | – | 14.6 µM | – | – | – | – | – | Active | –
5 | C/C=C(/C)C(=O)O[C@H]1[C@H](OC(=O)C(C)CC)[C@]2(CO)[C@H](O)[C@H](O)[C@]3(C)C(=CC[C@@H]4[C@@]5(C)CC[C@H](O[C@@H]6O[C@H](C(=O)O)[C@@H](O)[C@H](O[C@@H]7O[C@@H](CO)[C@H](O)[C@H]7O)[C@H]6O[C@@H]6O[C@H](CO)[C@H](O)[C@H](O)[C@H]6O)C(C)(C)[C@@H]5CC[C@]43C)[C@@H]2CC1(C)C (stereo partly specified) [AESCULIOSIDE IVA] | > 250 µM | 17.6 µM | 7.26 µM | Active | inactive | 23.8 µM | 4.78 µM | 51.8 µM | 9.91 µM | Active | 9.22 µM | – | – | – | – | – | – | –
6 | C/C=C(/C)C(=O)O[C@H]1[C@H](OC(=O)C(C)CC)[C@]2(CO)[C@H](O)C[C@]3(C)C(=CC[C@@H]4[C@@]5(C)CC[C@H](O[C@@H]6O[C@H](C(=O)O)[C@@H](O)[C@H](O[C@@H]7O[C@@H](CO)[C@H](O)[C@H]7O)[C@H]6O[C@@H]6O[C@H](CO)[C@H](O)[C@H](O)[C@H]6O)C(C)(C)[C@@H]5CC[C@]43C)[C@@H]2CC1(C)C (stereo partly specified) [AESCULIOSIDE IVC] | > 250 µM | 15.6 µM | 8.02 µM | Active | inactive | 23.8 µM | 4.34 µM | 49.7 µM | 10.2 µM | Active | 7.7 µM | – | – | – | – | – | – | –
7 | C/C=C(/C)C(=O)O[C@H]1[C@H](OC(C)=O)[C@]2(CO)[C@H](O)[C@H](O)[C@]3(C)C(=CC[C@@H]4[C@@]5(C)CC[C@H](O[C@@H]6O[C@H](C(=O)O)[C@@H](O)[C@H](O[C@@H]7OC[C@@H](O)[C@H](O)[C@H]7O)[C@H]6O[C@@H]6O[C@H](CO)[C@@H](O)[C@H](O)[C@H]6O)C(C)(C)[C@@H]5CC[C@]43C)[C@@H]2CC1(C)C [ERYNGIIOSIDE J] | > 250 µM | 11.5 µM | 7.36 µM | – | – | – | 5.61 µM | > 250 µM | 4.3 µM | – | 5.08 µM | – | – | – | – | – | – | –
8 | C/C=C(/C)C(=O)O[C@H]1[C@H](OC(C)=O)[C@]2(CO)[C@H](O)C[C@]3(C)C(=CC[C@@H]4[C@@]5(C)CC[C@H](O[C@@H]6O[C@H](C(=O)O)[C@@H](O)[C@H](O[C@@H]7OC[C@H](O)[C@H](O)[C@H]7O)[C@H]6O[C@@H]6O[C@H](CO)[C@@H](O)[C@H](O)[C@H]6O)C(C)(C)[C@@H]5CC[C@]43C)[C@@H]2CC1(C)C [ERYNGIIOSIDE L] | > 250 µM | 13 µM | 8.41 µM | – | – | – | 8.71 µM | > 250 µM | 8.35 µM | – | 11.3 µM | – | – | – | – | – | – | –
9 | C/C=C(/C)C(=O)O[C@H]1[C@H](O)[C@]2(CO)[C@H](O)[C@H](O)[C@]3(C)C(=CC[C@@H]4[C@@]5(C)CC[C@H](O[C@@H]6O[C@H](C(=O)O)[C@@H](O)[C@H](O[C@@H]7OC[C@@H](O)[C@H](O)[C@H]7O)[C@H]6O[C@@H]6O[C@H](CO)[C@@H](O)[C@H](O)[C@H]6O)C(C)(C)[C@@H]5CC[C@]43C)[C@@H]2CC1(C)C [ERYNGIOSIDE 94A] | > 250 µM | – | 9.38 µM | – | – | – | 8.51 µM | > 250 µM | 7.34 µM | – | 7.99 µM | inactive | – | – | – | – | – | inactive
10 | CC1(C)C=C2[C@H]3CC[C@@H]4[C@@]5(C)CC[C@H](O)C(C)(C)[C@@H]5CC[C@@]4(C)[C@]3(C)CC[C@@]2(C)CC1 [GERMANICOL] | – | – | – | – | – | – | – | – | – | – | – | inactive | inactive | Not Active | inactive | inactive | – | inactive
11 | C/C=C(/CC)C(=O)O[C@H]1[C@H](OC(C)=O)[C@]2(CO)[C@H](O)[C@H](O)[C@]3(C)C(=CC[C@@H]4[C@@]5(C)CC[C@H](O[C@@H]6O[C@H](C(=O)O)[C@@H](O)[C@H](O[C@@H]7OC[C@H](O)[C@H](O)[C@H]7O)[C@H]6O[C@@H]6O[C@H](CO)[C@@H](O)[C@H](O)[C@H]6O)C(C)(C)[C@@H]5CC[C@]43C)[C@@H]2CC1(C)C [SANICULASAPONIN III] | > 250 µM | 16 µM | 7.11 µM | – | – | – | 3.54 µM | > 250 µM | 4.73 µM | – | 8.51 µM | – | – | – | – | – | – | –
12 | CC(=O)O[C@H]1CC[C@]2(C)[C@H]3CC=C4[C@@H]5CC(C)(C)CC[C@]5(C)CC[C@@]4(C)[C@]3(C)CC[C@H]2C1(C)C [beta-AMYRIN ACETATE] | – | – | – | – | – | – | – | – | – | – | – | inactive | inactive | Not Active | inactive | inactive | – | inactive
